Data published in patent US6492416B1, “4,5-diaryl-3(2H)-furanone derivatives as cyclooxygenase-2 inhibitors” (Pacific Corporation, priority 1999, dated 2002).
≈ marks a conversion by molar mass, not a printed value.

Columns and labels:
COX-1 = molecular target: T1, COX-1 (Mus musculus, UniProt P22437); experiment: Evaluation of COX-1 activity: PGE2 formation in mouse peritoneal macrophages without aspirin and LPS treatment; type: cell-based; conditions: for IC50: read-out: IC50, μg/ml COX-1 (converted)
T1 sequence (P22437 27-602): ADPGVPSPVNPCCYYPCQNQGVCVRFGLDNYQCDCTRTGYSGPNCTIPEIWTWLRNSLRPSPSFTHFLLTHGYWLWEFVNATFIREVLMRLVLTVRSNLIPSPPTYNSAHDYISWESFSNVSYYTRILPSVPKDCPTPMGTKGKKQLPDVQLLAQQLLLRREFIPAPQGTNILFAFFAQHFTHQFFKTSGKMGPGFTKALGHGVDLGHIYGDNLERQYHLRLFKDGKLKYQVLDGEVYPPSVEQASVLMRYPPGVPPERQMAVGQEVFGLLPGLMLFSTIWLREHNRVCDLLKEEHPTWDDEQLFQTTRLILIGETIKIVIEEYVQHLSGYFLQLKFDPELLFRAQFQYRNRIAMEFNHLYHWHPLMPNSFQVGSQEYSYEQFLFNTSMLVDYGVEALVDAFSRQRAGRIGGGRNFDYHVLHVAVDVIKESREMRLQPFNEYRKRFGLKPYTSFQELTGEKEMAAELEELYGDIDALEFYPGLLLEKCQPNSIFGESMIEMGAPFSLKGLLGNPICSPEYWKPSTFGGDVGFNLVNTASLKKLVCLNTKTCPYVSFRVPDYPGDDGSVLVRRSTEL
Summary of the method: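 Peritoneal macrophages from C57BL/6 mice, without aspirin or LPS treatment, were plated at 1×10^6 cells/ml and fixed 2 h at 37 °C. Cells were preincubated 10 min, then given 10 μM arachidonic acid plus compound for 10 min; PGE2 was measured by RIA or EIA. IC50 came from 4–5 concentrations.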

COX-2 = molecular target: T2, COX-2 (Mus musculus, UniProt Q05769); experiment: Evaluation of COX-2 activity: PGE2 formation in aspirin-treated, LPS-stimulated mouse peritoneal macrophages; type: cell-based; conditions: for IC50: read-out: IC50, μg/ml COX-2 (converted)
T2 sequence (Q05769 18-604): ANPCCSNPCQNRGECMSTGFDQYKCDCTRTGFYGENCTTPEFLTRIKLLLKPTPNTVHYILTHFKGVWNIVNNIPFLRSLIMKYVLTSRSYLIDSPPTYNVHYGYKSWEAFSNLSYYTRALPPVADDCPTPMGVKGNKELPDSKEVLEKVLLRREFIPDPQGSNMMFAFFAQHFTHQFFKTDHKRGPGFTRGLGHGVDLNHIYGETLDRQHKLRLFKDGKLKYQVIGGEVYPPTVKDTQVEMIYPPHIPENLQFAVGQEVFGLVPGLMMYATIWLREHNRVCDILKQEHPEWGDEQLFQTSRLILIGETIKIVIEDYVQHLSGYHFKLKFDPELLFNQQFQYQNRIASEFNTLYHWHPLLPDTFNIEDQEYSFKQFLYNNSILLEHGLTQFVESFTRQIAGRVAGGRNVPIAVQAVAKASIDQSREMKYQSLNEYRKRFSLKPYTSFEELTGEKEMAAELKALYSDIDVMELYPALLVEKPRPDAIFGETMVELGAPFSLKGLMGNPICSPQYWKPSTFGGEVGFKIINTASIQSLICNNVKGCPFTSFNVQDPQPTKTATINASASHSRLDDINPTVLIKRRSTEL
Summary of the method: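 C57BL/6 peritoneal macrophages treated with 500 μM aspirin to block COX-1, adhered, then stimulated with 10 μg/ml LPS for 16 h at 37 °C to induce COX-2.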

## CCC1(C)OC(c2ccc(S(C)(=O)=O)cc2)=C(c2cccc(C(F)(F)F)c2)C1=O (stereo not drawn) [Example 194]
COX-1
  IC50: 47.1 µM
other
  melting point: 45 to 46 °C
COX-2
  IC50: 0.118 µM

## CCC1(C)OC(c2ccc(S(C)(=O)=O)cc2)=C(c2ccc(Cl)c(C(F)(F)F)c2)C1=O (stereo not drawn) [Example 198]
COX-1
  IC50: 6.54 µM
other
  melting point: 168 to 170 °C
COX-2
  IC50: 0.0654 µM

## CCC1(C)OC(c2ccc(S(C)(=O)=O)cc2)=C(c2ccc(OC)c(F)c2)C1=O (stereo not drawn) [Example 214]
COX-1
  IC50: 7.42 µM
other
  melting point: 158 to 160 °C
COX-2
  IC50: 0.0742 µM

## CCC1(C)OC(c2ccc(S(N)(=O)=O)cc2)=C(c2cccc(OC)c2)C1=O (stereo not drawn) [Example 236]
COX-1
  IC50, μg/ml COX-1: 10.7 µg/mL (≈ 27.6 µM)
other
  melting point: 69 to 70 °C
COX-2
  IC50, μg/ml COX-2: 0.0097 µg/mL (≈ 0.025 µM)

## CCC1(CC)OC(c2ccc(S(C)(=O)=O)cc2)=C(c2ccc(C)cc2)C1=O [Example 245]
COX-1
  IC50, μg/ml COX-1: 3 µg/mL (≈ 7.8 µM)
other
  melting point: 96 to 97 °C
COX-2
  IC50, μg/ml COX-2: 0.03 µg/mL (≈ 0.078 µM)

## CCC1(CC)OC(c2ccc(S(C)(=O)=O)cc2)=C(c2ccc(C(F)(F)F)cc2)C1=O [Example 246]
COX-1
  IC50, μg/ml COX-1: 3 µg/mL (≈ 6.84 µM)
other
  melting point: 121 to 122 °C
COX-2
  IC50, μg/ml COX-2: 0.03 µg/mL (≈ 0.0684 µM)

## CCC1(CC)OC(c2ccc(S(C)(=O)=O)cc2)=C(c2ccc(F)c(Cl)c2)C1=O [Example 254]
COX-1
  IC50, μg/ml COX-1: 3 µg/mL (≈ 7.09 µM)
other
  melting point: 173 to 174 °C
COX-2
  IC50, μg/ml COX-2: 0.03 µg/mL (≈ 0.0709 µM)

## CS(=O)(=O)c1ccc(C2=C(c3cc(F)cc(F)c3)C(=O)C3(CCCC3)O2)cc1 [Example 256]
COX-1
  IC50, μg/ml COX-1: 5 µg/mL (≈ 12.4 µM)
other
  melting point: 127 to 128 °C
COX-2
  IC50, μg/ml COX-2: 0.03 µg/mL (≈ 0.0742 µM)

## CS(=O)(=O)c1ccc(C2=C(c3cccc(Cl)c3)C(=O)C3(CCOCC3)O2)cc1 [Example 263]
COX-1
  IC50, μg/ml COX-1: 50 µg/mL (≈ 119 µM)
other
  melting point: 96 to 99 °C
COX-2
  IC50, μg/ml COX-2: 0.03 µg/mL (≈ 0.0716 µM)

## CC1(C)OC(c2ccc(S(C)(=O)=O)c(F)c2)=C(c2ccccc2)C1=O [Example 273]
COX-1
  IC50, μg/ml COX-1: 20 µg/mL (≈ 55.5 µM)
other
  melting point: 190 to 191 °C
COX-2
  IC50, μg/ml COX-2: 0.03 µg/mL (≈ 0.0832 µM)

## CC1(C)OC(c2ccc(S(C)(=O)=O)c(F)c2)=C(c2cccc(F)c2)C1=O [Example 275]
COX-1
  IC50, μg/ml COX-1: 200 µg/mL (≈ 529 µM)
other
  melting point: 182 to 183 °C
COX-2
  IC50, μg/ml COX-2: 0.03 µg/mL (≈ 0.0793 µM)

## CC1(C)OC(c2ccc(S(C)(=O)=O)c(F)c2)=C(c2ccc(F)cc2F)C1=O [Example 281]
COX-1
  IC50, μg/ml COX-1: 10 µg/mL (≈ 25.2 µM)
other
  melting point: 183 to 184 °C
COX-2
  IC50, μg/ml COX-2: 0.1 µg/mL (≈ 0.252 µM)

## CC1(C)OC(c2ccc(S(C)(=O)=O)c(F)c2)=C(c2cc(F)ccc2F)C1=O [Example 282]
COX-1
  IC50, μg/ml COX-1: 30 µg/mL (≈ 75.7 µM)
other
  melting point: 140 to 141 °C
COX-2
  IC50, μg/ml COX-2: 0.03 µg/mL (≈ 0.0757 µM)

## CC1(C)OC(c2ccc(S(C)(=O)=O)c(F)c2)=C(c2c(F)cccc2F)C1=O [Example 283]
COX-1
  IC50, μg/ml COX-1: 90 µg/mL (≈ 227 µM)
other
  melting point: 113 to 115 °C
COX-2
  IC50, μg/ml COX-2: 0.7 µg/mL (≈ 1.77 µM)

## CC1(C)OC(c2ccc(S(C)(=O)=O)c(F)c2)=C(c2cc(F)cc(F)c2)C1=O [Example 285]
COX-1
  IC50, μg/ml COX-1: 200 µg/mL (≈ 505 µM)
other
  melting point: 163 to 164 °C
COX-2
  IC50, μg/ml COX-2: 0.03 µg/mL (≈ 0.0757 µM)

## CC1(C)OC(c2ccc(S(C)(=O)=O)c(F)c2)=C(c2ccc(C(F)(F)F)cc2)C1=O [Example 286]
COX-1
  IC50, μg/ml COX-1: 5 µg/mL (≈ 11.7 µM)
other
  melting point: 134 to 135 °C
COX-2
  IC50, μg/ml COX-2: 0.03 µg/mL (≈ 0.07 µM)

## C[S+]([O-])c1ccc(C2=C(c3ccccc3)C(=O)C(C)(C)O2)cc1F (stereo not drawn) [Example 291, 2,2-dimethyl-5-{3-fluoro-4-(methylsulfinyl)phenyl}-4-phenyl-3(2H)-furanone]
COX-1
  IC50, μg/ml COX-1: 3 µg/mL (≈ 8.71 µM)
other
  melting point: 149 to 150 °C
COX-2
  IC50, μg/ml COX-2: 0.2 µg/mL (≈ 0.581 µM)

## CC1(C)OC(c2ccc(S(N)(=O)=O)c(F)c2)=C(c2ccccc2Cl)C1=O [Example 304]
COX-1
  IC50, μg/ml COX-1: 50 µg/mL (≈ 126 µM)
other
  melting point: 122 to 123 °C
COX-2
  IC50, μg/ml COX-2: 0.05 µg/mL (≈ 0.126 µM)

## CC1(C)OC(c2ccc(S(N)(=O)=O)c(F)c2)=C(c2cccc(Cl)c2)C1=O [Example 305]
COX-1
  IC50, μg/ml COX-1: 0.3 µg/mL (≈ 0.758 µM)
other
  melting point: 164 to 165 °C
COX-2
  IC50, μg/ml COX-2: 0.003 µg/mL (≈ 0.00758 µM)

## CC1(C)OC(c2ccc(S(C)(=O)=O)cc2F)=C(c2ccccc2)C1=O [Example 321]
COX-1
  IC50, μg/ml COX-1: 20 µg/mL (≈ 55.5 µM)
other
  melting point: 175 to 176 °C
COX-2
  IC50, μg/ml COX-2: 0.03 µg/mL (≈ 0.0832 µM)

## CC1(C)OC(c2ccc(S(C)(=O)=O)cc2F)=C(c2cccc(Cl)c2)C1=O [Example 322]
COX-1
  IC50, μg/ml COX-1: 3 µg/mL (≈ 7.6 µM)
other
  melting point: 139 to 140 °C
COX-2
  IC50, μg/ml COX-2: 0.02 µg/mL (≈ 0.0507 µM)

## CC1(C)OC(c2ccc(S(C)(=O)=O)cc2F)=C(c2cccc(F)c2)C1=O [Example 323]
COX-1
  IC50, μg/ml COX-1: 10 µg/mL (≈ 26.4 µM)
other
  melting point: 157 to 158 °C
COX-2
  IC50, μg/ml COX-2: 0.03 µg/mL (≈ 0.0793 µM)

## CC1(C)OC(c2ccc(S(C)(=O)=O)cc2F)=C(c2ccc(F)cc2)C1=O [Example 324]
COX-1
  IC50, μg/ml COX-1: 3 µg/mL (≈ 7.93 µM)
other
  melting point: 150 to 152 °C
COX-2
  IC50, μg/ml COX-2: 0.03 µg/mL (≈ 0.0793 µM)

## CC1(C)OC(c2ccc(S(C)(=O)=O)cc2F)=C(c2cc(F)ccc2F)C1=O [Example 325]
COX-1
  IC50, μg/ml COX-1: 200 µg/mL (≈ 505 µM)
other
  melting point: 150 to 151 °C
COX-2
  IC50, μg/ml COX-2: 0.05 µg/mL (≈ 0.126 µM)

## CC1(C)OC(c2ccc(S(C)(=O)=O)cc2F)=C(c2cc(F)cc(F)c2)C1=O [Example 326]
COX-1
  IC50, μg/ml COX-1: 20 µg/mL (≈ 50.5 µM)
other
  melting point: 118 to 119 °C
COX-2
  IC50, μg/ml COX-2: 0.03 µg/mL (≈ 0.0757 µM)

## CC1(C)OC(c2ccc(S(N)(=O)=O)cc2F)=C(c2ccccc2)C1=O [Example 332, 5-{4-(Aminosulfonyl)-2-fluorophenyl}-2,2-dimethyl-4-phenyl-3(2H)-furanone]
COX-1
  IC50, μg/ml COX-1: 5 µg/mL (≈ 13.8 µM)
other
  melting point: 79 to 81 °C
COX-2
  IC50, μg/ml COX-2: 0.03 µg/mL (≈ 0.083 µM)

## CSc1ccc(C2=C(c3cc(F)cc(F)c3)C(=O)C(C)(C)O2)cc1Br [Example 340]
COX-1
  IC50, μg/ml COX-1: 30 µg/mL (≈ 70.5 µM)
other
  melting point: 115 to 116 °C
COX-2
  IC50, μg/ml COX-2: 10 µg/mL (≈ 23.5 µM)

## CC1(C)OC(c2ccc(S(C)(=O)=O)c(Br)c2)=C(c2ccccc2)C1=O [Example 341, 5-{3-Bromo-4-(methylsulfonyl)phenyl}-2,2-dimethyl-4-phenyl-3(2H)-furanone]
COX-1
  IC50, μg/ml COX-1: 90 µg/mL (≈ 214 µM)
other
  melting point: 154 to 155 °C
COX-2
  IC50, μg/ml COX-2: 0.3 µg/mL (≈ 0.712 µM)
